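Briefly, cells in 96-well plates were exposed to five compound concentrations for 48 h, and endpoints were estimated by linear interpolation. GI50 marks 50% less growth.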 Activity calls are given as the source filed them. Rule as the data show it: active = GI50 up to about 1.1 µM and inactive = higher.
Tests used:
Experiment in all cases: NCI tumour cell line growth inhibition, 48 h
COLO 205 = tested on: COLO 205
SK-OV-3 = tested on: SK-OV-3
SK-MEL-5 = tested on: SK-MEL-5
IGROV-1 = tested on: IGROV-1
OVCAR-5 = tested on: OVCAR-5
HCC 2998 = tested on: HCC 2998
SK-MEL-28 = tested on: SK-MEL-28
UO-31 = tested on: UO-31
HOP-92 = tested on: HOP-92
ACHN = tested on: ACHN
SW-620 = tested on: SW-620
CCRF-CEM = tested on: CCRF-CEM
A549 = tested on: A549
TK-10 = tested on: TK-10
HL-60 = tested on: HL-60
U-251 = tested on: U-251
LOX IMVI = tested on: LOX IMVI
HCT-116 = tested on: HCT-116
MOLT-4 = tested on: MOLT-4
OVCAR-4 = tested on: OVCAR-4

SMILES | GI50 (COLO 205) | GI50 (SK-OV-3) | GI50 (SK-MEL-5) | GI50 (IGROV-1) | GI50 (OVCAR-5) | GI50 (HCC 2998) | GI50 (SK-MEL-28) | GI50 (UO-31) | GI50 (HOP-92) | GI50 (ACHN) | GI50 (SW-620) | GI50 (CCRF-CEM) | GI50 (A549) | GI50 (TK-10) | GI50 (HL-60) | GI50 (U-251) | GI50 (LOX IMVI) | GI50 (HCT-116) | GI50 (MOLT-4) | GI50 (OVCAR-4)
CC(C)(Br)C1(O)CCCN1C(=O)c1ccccc1 (configuration not stated) | > 100 µM (inactive) | > 100 µM (inactive) | > 100 µM (inactive) | > 100 µM (inactive) | > 100 µM (inactive) | > 100 µM (inactive) | > 100 µM (inactive) | > 100 µM (inactive) | > 100 µM (inactive) | > 100 µM (inactive) | > 100 µM (inactive) | > 100 µM (inactive) | > 100 µM (inactive) | > 100 µM (inactive) | > 100 µM (inactive) | > 100 µM (inactive) | > 100 µM (inactive) | > 100 µM (inactive) | > 100 µM (inactive) | 
CCP(=O)(CC)C(Cl)(Cl)C(O)C(C)(C)C (configuration not stated) | > 100 µM (inactive) | > 100 µM (inactive) | > 100 µM (inactive) | > 100 µM (inactive) | > 100 µM (inactive) | > 100 µM (inactive) | > 100 µM (inactive) | > 100 µM (inactive) | > 100 µM (inactive) | > 100 µM (inactive) | > 100 µM (inactive) | > 100 µM (inactive) | > 100 µM (inactive) | > 100 µM (inactive) | > 10 µM (inactive) | > 100 µM (inactive) | > 100 µM (inactive) | > 100 µM (inactive) | > 100 µM (inactive) | > 100 µM (inactive)
OCc1cn(C(c2ccccc2)(c2ccccc2)c2ccccc2)cn1 | > 100 µM (inactive) | 66.4 µM (inactive) | > 100 µM (inactive) | > 100 µM (inactive) | > 100 µM (inactive) | > 100 µM (inactive) | > 100 µM (inactive) | > 100 µM (inactive) | 29.7 µM (inactive) | 72.4 µM (inactive) | > 100 µM (inactive) | > 100 µM (inactive) | > 100 µM (inactive) | > 100 µM (inactive) | > 100 µM (inactive) | 50.9 µM (inactive) | 66.7 µM (inactive) | > 100 µM (inactive) | > 100 µM (inactive) | > 100 µM (inactive)
Nc1nnc(CCC(=O)Nc2cc(Cl)ccc2Cl)n1N | > 100 µM (inactive) | > 100 µM (inactive) | > 100 µM (inactive) | > 100 µM (inactive) | > 100 µM (inactive) | > 100 µM (inactive) | > 100 µM (inactive) | > 100 µM (inactive) | > 100 µM (inactive) | > 100 µM (inactive) | > 100 µM (inactive) | > 100 µM (inactive) | > 100 µM (inactive) | > 100 µM (inactive) | > 100 µM (inactive) | > 100 µM (inactive) | > 100 µM (inactive) | > 100 µM (inactive) | > 100 µM (inactive) | > 100 µM (inactive)
CC(C)c1cccc(C(C)C)c1OS(=O)(=O)NC(=O)OC(C(F)(F)F)C(F)(F)F | 88.3 µM (inactive) | 46.7 µM (inactive) | 53.2 µM (inactive) | > 100 µM (inactive) | > 100 µM (inactive) | 40.5 µM (inactive) | > 100 µM (inactive) | 30.1 µM (inactive) | 21.6 µM (inactive) | 37.1 µM (inactive) | 51.6 µM (inactive) | 6.81 µM (inactive) | 28.6 µM (inactive) | > 100 µM (inactive) | 37.6 µM (inactive) | 43.7 µM (inactive) | 50 µM (inactive) | 31.5 µM (inactive) | 20 µM (inactive) | 50.1 µM (inactive)
CCCn1cc2c3c(cccc31)C1C=C(C)CN(C)C1C2 (configuration not stated) | 9.98 µM (inactive) | 37.3 µM (inactive) | 11.3 µM (inactive) | 27 µM (inactive) | 25.2 µM (inactive) | 15.2 µM (inactive) | 18.1 µM (inactive) | 9.71 µM (inactive) | 11.7 µM (inactive) |  | 23.4 µM (inactive) | 3.67 µM (inactive) | 34.5 µM (inactive) |  | 1.51 µM (inactive) | 19 µM (inactive) | 13.6 µM (inactive) | 10.4 µM (inactive) | 9.66 µM (inactive) | 10.1 µM (inactive)
O=C(Nc1cccc(C(=O)NCCCO)c1)/C(=C/c1ccccc1)NC(=O)c1ccccc1 | > 100 µM (inactive) | > 100 µM (inactive) | > 100 µM (inactive) | > 100 µM (inactive) | > 100 µM (inactive) | > 100 µM (inactive) | > 100 µM (inactive) | > 100 µM (inactive) | > 100 µM (inactive) | > 100 µM (inactive) | > 100 µM (inactive) | > 100 µM (inactive) | > 100 µM (inactive) | > 100 µM (inactive) | > 100 µM (inactive) | > 100 µM (inactive) | > 100 µM (inactive) | > 100 µM (inactive) | 84.1 µM (inactive) | > 100 µM (inactive)
C=C1C(=O)O[C@@H]2[C@H]3O[C@]3(C)CCC=C(C)CC[C@@H]12 | 14.5 µM (inactive) | 54.7 µM (inactive) | 17.5 µM (inactive) | 21.1 µM (inactive) | 34.2 µM (inactive) | 24.2 µM (inactive) | 21.1 µM (inactive) | 42 µM (inactive) | 13.6 µM (inactive) |  | 14.8 µM (inactive) | 8.38 µM (inactive) | 94.6 µM (inactive) |  | 4.69 µM (inactive) | 41.6 µM (inactive) | 8.24 µM (inactive) | 10.3 µM (inactive) | 14.2 µM (inactive) | 21.6 µM (inactive)
C=C1c2nc3ccccc3n2C=C(c2ccccc2)N1c1ccc([N+](=O)[O-])cc1 | 6.52 µM (inactive) | 1.79 µM (inactive) | 4.02 µM (inactive) | 4.84 µM (inactive) | 10.7 µM (inactive) | 3.49 µM (inactive) | 24.6 µM (inactive) | 3.3 µM (inactive) | 3.9 µM (inactive) | 1.67 µM (inactive) | 14.4 µM (inactive) | 9.46 µM (inactive) | 2.31 µM (inactive) | 4.32 µM (inactive) | 7.01 µM (inactive) | 5.33 µM (inactive) | 5.36 µM (inactive) | 2.52 µM (inactive) | 29.2 µM (inactive) | 0.324 µM (active)
C=CS(=O)(=O)CCN1CC1 | > 10 µM (inactive) | > 10 µM (inactive) | > 10 µM (inactive) | > 10 µM (inactive) | > 10 µM (inactive) | > 10 µM (inactive) | > 10 µM (inactive) |  | > 10 µM (inactive) | > 10 µM (inactive) | > 10 µM (inactive) | > 10 µM (inactive) | > 10 µM (inactive) | > 10 µM (inactive) | > 10 µM (inactive) | > 10 µM (inactive) | > 10 µM (inactive) | > 10 µM (inactive) | > 10 µM (inactive) | > 10 µM (inactive)
COc1cccc(/C=C/C(=O)N2CC(CCl)c3c2cc(N)c2ccccc32)c1 (configuration not stated) | 0.0146 µM (active) | 0.00371 µM (active) | < 0.01 µM (active) |  | 0.00804 µM (active) | 0.00242 µM (active) | 0.0114 µM (active) | 0.00171 µM (active) | 0.0993 µM (active) | 0.000264 µM (active) | 0.00194 µM (active) | < 0.01 µM (active) | 0.00153 µM (active) | 0.00314 µM (active) | < 0.01 µM (active) | 0.000344 µM (active) | 0.000548 µM (active) | 0.00109 µM (active) | 0.0194 µM (active) | 0.00344 µM (active)
CCOC(=O)/C(=C/c1cn(C(C)=O)c2ccccc12)P(=O)(OC)OC | > 10 µM (inactive) | 25.1 µM (inactive) | 23.1 µM (inactive) | 25.6 µM (inactive) | 40.6 µM (inactive) | > 10 µM (inactive) | 37.2 µM (inactive) |  | 31.1 µM (inactive) | 31.4 µM (inactive) | 41.8 µM (inactive) | 30 µM (inactive) | 33.2 µM (inactive) | > 100 µM (inactive) | 18 µM (inactive) | 30.4 µM (inactive) | 25.3 µM (inactive) | 30.8 µM (inactive) | 25.4 µM (inactive) | 33.4 µM (inactive)
